Data from paper PMC7753147, “High-throughput determination of protein affinities using unmodified peptide libraries in nanomolar scale” (iScience, 2020).
Where a SMILES comes first, the peptide text is derived from it.

Legend:
[1] = biological target: T1, gephE (Rattus norvegicus, UniProt Q03555); experiment: TRIC displacement 12-point dose response against gephE-NN1D-Alexa647 complex; assay type: binding
T1 construct: gephE (residues 318-736) was generated; made in house
T1 sequence (Q03555 350-768): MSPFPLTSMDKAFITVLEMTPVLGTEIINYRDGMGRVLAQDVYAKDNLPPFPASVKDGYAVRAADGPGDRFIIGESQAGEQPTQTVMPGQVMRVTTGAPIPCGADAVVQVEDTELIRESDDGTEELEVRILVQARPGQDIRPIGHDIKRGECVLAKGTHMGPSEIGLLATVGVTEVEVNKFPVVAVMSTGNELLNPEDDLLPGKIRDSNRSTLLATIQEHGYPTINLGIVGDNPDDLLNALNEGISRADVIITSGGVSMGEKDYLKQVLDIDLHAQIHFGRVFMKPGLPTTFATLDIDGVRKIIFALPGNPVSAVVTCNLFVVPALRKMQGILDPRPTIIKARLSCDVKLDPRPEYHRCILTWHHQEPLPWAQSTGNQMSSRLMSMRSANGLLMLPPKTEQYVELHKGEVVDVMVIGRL

[2] = test system: gephE; experiment: µSPOT peptide microarray binding assay with recombinant gephE; conditions: µSPOT peptide microarray, GlyRβ full positional scan, recombinant gephE; intensity normalised to wild-type sequence DLRSNDFSIVGSLPR (=1)
[3] = test system: native geph; experiment: µSPOT peptide microarray binding assay with native geph from mouse brain lysate; conditions: µSPOT peptide microarray, GlyRβ full positional scan, native geph from mouse brain lysate; intensity normalised to wild-type sequence DLRSNDFSIVGSLPR (=1)
[4] = test system: FL-geph; experiment: µSPOT peptide microarray binding assay with full-length geph; conditions: µSPOT peptide microarray, GlyRβ full positional scan, intensity normalised to wild-type sequence DLRSNDFSIVGSLPR (=1)

| Ki [1] [µM] | gephE Binding Intensity [norm.] [2] [norm.] | Native geph Binding Intensity [norm.] [3] [norm.] | Fl-geph Binding Intensity [norm.] [4] [norm.] | Compound |
| --- | --- | --- | --- | --- |
| 31.9 |  |  |  | CC[C@H](C)[C@H](NC(=O)[C@H](CO)NC(=O)[C@H](Cc1c[nH]c2ccccc12)NC(=O)[C@H](CC(=O)O)NC(=O)[C@H](CC(N)=O)NC(=O)[C@H](CO)NC(=O)[C@H](CCCNC(=N)N)NC(=O)[C@H](CC(C)C)NC(=O)[C@@H](N)CC(=O)O)C(=O)N[C@H](C(=O)NCC(=O)N[C@@H](CO)C(=O)N[C@@H](CC(C)C)C(=O)N1CCC[C@H]1C(=O)N[C@@H](CCCNC(=N)N)C(N)=O)C(C)C [GlyRβ_Full_Positional_Scan_128] (H-DLRSNDWSIVGSLPR-NH2) |
| 185 |  |  |  | CC[C@H](C)[C@H](NC(=O)[C@H](CO)NC(=O)[C@H](Cc1ccc(O)cc1)NC(=O)[C@H](CC(=O)O)NC(=O)[C@H](CC(N)=O)NC(=O)[C@H](CO)NC(=O)[C@H](CCCNC(=N)N)NC(=O)[C@H](CC(C)C)NC(=O)[C@@H](N)CC(=O)O)C(=O)N[C@H](C(=O)NCC(=O)N[C@@H](CO)C(=O)N[C@@H](CC(C)C)C(=O)N1CCC[C@H]1C(=O)N[C@@H](CCCNC(=N)N)C(N)=O)C(C)C [GlyRβ_Full_Positional_Scan_129] (H-DLRSNDYSIVGSLPR-NH2) |
| 42.4 |  |  |  | CC[C@H](C)[C@H](NC(=O)CNC(=O)[C@H](Cc1ccccc1)NC(=O)[C@H](CC(=O)O)NC(=O)[C@H](CC(N)=O)NC(=O)[C@H](CO)NC(=O)[C@H](CCCNC(=N)N)NC(=O)[C@H](CC(C)C)NC(=O)[C@@H](N)CC(=O)O)C(=O)N[C@H](C(=O)NCC(=O)N[C@@H](CO)C(=O)N[C@@H](CC(C)C)C(=O)N1CCC[C@H]1C(=O)N[C@@H](CCCNC(=N)N)C(N)=O)C(C)C [GlyRβ_Full_Positional_Scan_142] (H-DLRSNDFGIVGSLPR-NH2) |
| 16.6 |  |  |  | CC[C@H](C)[C@H](NC(=O)[C@@H](NC(=O)[C@H](Cc1ccccc1)NC(=O)[C@H](CC(=O)O)NC(=O)[C@H](CC(N)=O)NC(=O)[C@H](CO)NC(=O)[C@H](CCCNC(=N)N)NC(=O)[C@H](CC(C)C)NC(=O)[C@@H](N)CC(=O)O)[C@@H](C)O)C(=O)N[C@H](C(=O)NCC(=O)N[C@@H](CO)C(=O)N[C@@H](CC(C)C)C(=O)N1CCC[C@H]1C(=O)N[C@@H](CCCNC(=N)N)C(N)=O)C(C)C [GlyRβ_Full_Positional_Scan_156] (H-DLRSNDFTIVGSLPR-NH2) |
| 22.4 |  |  |  | CC(C)C[C@H](NC(=O)[C@H](CO)NC(=O)[C@H](Cc1ccccc1)NC(=O)[C@H](CC(=O)O)NC(=O)[C@H](CC(N)=O)NC(=O)[C@H](CO)NC(=O)[C@H](CCCNC(=N)N)NC(=O)[C@H](CC(C)C)NC(=O)[C@@H](N)CC(=O)O)C(=O)N[C@H](C(=O)NCC(=O)N[C@@H](CO)C(=O)N[C@@H](CC(C)C)C(=O)N1CCC[C@H]1C(=O)N[C@@H](CCCNC(=N)N)C(N)=O)C(C)C [GlyRβ_Full_Positional_Scan_164] (H-DLRSNDFSLVGSLPR-NH2) |
| 21.4 |  |  |  | CC(C)C[C@H](NC(=O)[C@@H](N)CC(=O)O)C(=O)N[C@@H](CCCNC(=N)N)C(=O)N[C@@H](CO)C(=O)N[C@@H](CC(N)=O)C(=O)N[C@@H](CC(=O)O)C(=O)N[C@@H](Cc1ccccc1)C(=O)N[C@@H](CO)C(=O)N[C@H](C(=O)N[C@H](C(=O)NCC(=O)N[C@@H](CO)C(=O)N[C@@H](CC(C)C)C(=O)N1CCC[C@H]1C(=O)N[C@@H](CCCNC(=N)N)C(N)=O)C(C)C)C(C)C [GlyRβ_Full_Positional_Scan_166] (H-DLRSNDFSVVGSLPR-NH2) |
| 9.01 |  |  |  | CC[C@H](C)[C@H](NC(=O)[C@H](CO)NC(=O)[C@H](Cc1ccccc1)NC(=O)[C@H](CC(=O)O)NC(=O)[C@H](CC(N)=O)NC(=O)[C@H](CO)NC(=O)[C@H](CCCNC(=N)N)NC(=O)[C@H](CC(C)C)NC(=O)[C@@H](N)CC(=O)O)C(=O)N[C@H](C(=O)NCC(=O)N[C@@H](CO)C(=O)N[C@@H](CC(C)C)C(=O)N1CCC[C@H]1C(=O)N[C@@H](CCCNC(=N)N)C(N)=O)[C@@H](C)CC [GlyRβ_Full_Positional_Scan_183] (H-DLRSNDFSIIGSLPR-NH2) |
|  | 1.1 | 0.97 | 0.94 | ELRSNDFSIVGSLPR [GlyRβ_Full_Positional_Scan_011] |
|  | 0.96 | 0.77 | 1.03 | FLRSNDFSIVGSLPR [GlyRβ_Full_Positional_Scan_007] |
|  | 1.01 | 0.75 | 1.03 | GLRSNDFSIVGSLPR [GlyRβ_Full_Positional_Scan_002] |
|  | 1.1 | 0.83 | 1 | HLRSNDFSIVGSLPR [GlyRβ_Full_Positional_Scan_013] |
|  | 1.15 | 0.86 | 1.09 | ILRSNDFSIVGSLPR [GlyRβ_Full_Positional_Scan_003] |
|  | 1.03 | 0.32 | 0.94 | KLRSNDFSIVGSLPR [GlyRβ_Full_Positional_Scan_014] |
|  | 1.18 | 0.66 | 1.1 | LLRSNDFSIVGSLPR [GlyRβ_Full_Positional_Scan_004] |
|  | 1.13 | 1.2 | 1.04 | MLRSNDFSIVGSLPR [GlyRβ_Full_Positional_Scan_018] |
|  | 1.15 | 1.28 | 1 | NLRSNDFSIVGSLPR [GlyRβ_Full_Positional_Scan_019] |
|  | 1.1 | 0.72 | 1.16 | PLRSNDFSIVGSLPR [GlyRβ_Full_Positional_Scan_005] |
|  | 1.19 | 1.2 | 1.16 | QLRSNDFSIVGSLPR [GlyRβ_Full_Positional_Scan_020] |
|  | 0.98 | 0.46 | 0.99 | RLRSNDFSIVGSLPR [GlyRβ_Full_Positional_Scan_012] |
|  | 1.04 | 0.69 | 0.91 | SLRSNDFSIVGSLPR [GlyRβ_Full_Positional_Scan_015] |
|  | 1.16 | 0.79 | 0.85 | TLRSNDFSIVGSLPR [GlyRβ_Full_Positional_Scan_016] |
|  | 1.05 | 0.8 | 1.18 | VLRSNDFSIVGSLPR [GlyRβ_Full_Positional_Scan_006] |
|  | 0.91 | 0.67 | 0.86 | WLRSNDFSIVGSLPR [GlyRβ_Full_Positional_Scan_008] |
|  | 1.05 | 0.74 | 1 | YLRSNDFSIVGSLPR [GlyRβ_Full_Positional_Scan_009] |
